Results: ChEMBL document CHEMBL1201862, “PubChem BioAssay data set” (2004)
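A five-concentration, 48-hour dose response in 96-well plates underlies each endpoint, interpolated linearly between surrounding concentrations. The concentration for 50% growth inhibition is given as GI50.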 Activity calls are given as the source filed them. Rule as the data show it: active = GI50 up to about 1.1 µM and inactive = higher.

Experiments:
Test in all cases: growth of human tumour cells (NCI), 48 h
K562 = tested on: K562
HT-29 = tested on: HT-29
SNB-75 = tested on: SNB-75
CCRF-CEM = tested on: CCRF-CEM
SK-MEL-5 = tested on: SK-MEL-5
786-0 = tested on: 786-0
IGROV-1 = tested on: IGROV-1
UACC-62 = tested on: UACC-62
OVCAR-3 = tested on: OVCAR-3
NCI-H522 = tested on: NCI-H522
HL-60 = tested on: HL-60
Malme-3M = tested on: Malme-3M
SF-295 = tested on: SF-295
NCI-H23 = tested on: NCI-H23
OVCAR-8 = tested on: OVCAR-8
EKVX = tested on: EKVX
UACC-257 = tested on: UACC-257
U-251 = tested on: U-251
NCI-H460 = tested on: NCI-H460
RPMI-8226 = tested on: RPMI-8226

Measured: GI50

NC(=O)c1ccccc1NC(=O)C(=O)C(c1cnc2ccc([N+](=O)[O-])cc2n1)[N+](=O)[O-] (stereo not given)
inactive: K562 > 100 µM | HT-29 > 100 µM | SNB-75 > 100 µM | CCRF-CEM 39.2 µM | SK-MEL-5 77.8 µM | 786-0 > 100 µM | IGROV-1 > 100 µM | UACC-62 > 100 µM | OVCAR-3 > 100 µM | NCI-H522 33.3 µM | HL-60 > 100 µM | Malme-3M > 100 µM | SF-295 > 100 µM | NCI-H23 > 100 µM | OVCAR-8 > 100 µM | EKVX > 100 µM | UACC-257 > 100 µM | U-251 > 100 µM | NCI-H460 64.9 µM | RPMI-8226 > 100 µM
